Values after ≈ are worked out from the molar mass of the structure shown. Values joined by “and” are separate entries in the source; they are usually repeats but may differ in a detail not shown here. Equal entries are not always repeated. Where two headings read alike, the source gives them in different places.
Tests used:
S. epidermidis = experiment: MIC and MBC, broth microdilution; format: cell-based, Staphylococcus epidermidis; settings: Staphylococcus epidermidis, geometric mean, S. epidermidis (n = 3)
Experimental: (§1) Seven clinical isolates of Staphylococcus spp. including 2 S. aureus, 3 S. saprophyticus, and 2 S. epidermidis were used. They were isolated from urine samples in our previous study. Two reference strains (S. aureus ATCC1026 and S. epidermidis ATCC35984) obtained from the American Type Culture Collection were also included. They were kept in the mixture of glycerol and Mueller Hinton Broth (MHB) (1:1) at −20°C, and the activation was achieved using the streak technique on Mueller Hinton agar (MHA) medium.
(§2) The MICs of ATBs and NPs were determined by the broth microdilution method as previously described. NPs and ATBs were, respectively, prepared at 4096 µg/mL and 512 µg/mL and serially diluted twofold with MHB in a 96-well microplate at a volume of 100 µL. Then, the wells were filled with 100 µL of inoculum (1.5 × 10^6 CFU/mL) to give final concentrations ranging from 1024 µg/mL to 0.5 µg/mL and 128 µg/mL to 0.062 µg/mL of NPs and ATBs, respectively. The microplates were incubated for 24 h at 37°C. Wells containing only bacterial inoculum were used as the negative control. After incubation, a volume of 40 µL of INT solution (0.2 mg/mL) was added to each well, and the microplate was incubated at 37°C for 30 min. Viable bacteria cells change the yellow dye of INT to a pink color. The MIC was considered as the lowest concentration of the sample at which there was no change in the coloration of the medium, corresponding to the complete inhibition of microbial growth.
(§3) All tests were performed in triplicate.

S. aureus biofilm = experiment: Biofilm eradication assay (MBEC, MTT); format: cell-based, Staphylococcus aureus; settings: Staphylococcus aureus, 24 h; geometric mean, S. aureus (n = 3)
Experimental: The determination of the biofilm eradication potential of NPs and ATBs was performed as previously described. Briefly, 100 µL of bacterial inoculum (1.5 × 10^6 CFU/mL) and 100 µL of MHB + 1% glucose were introduced into the microplate, incubated at 37°C for 24 h, and the microplate was gently emptied and washed three times with PBS. Then, 200 µL of ATBs or NPs at respective concentrations ranging from 8 to 1024 µg/mL and from 16 to 2048 µg/mL were incubated at 37°C for 24 h. Once incubation was completed, the microplate was processed as described above, and the percentage of biofilm eradication was calculated using the formula below. The minimal biofilm eradicating concentration (MBEC) was recorded as the lowest concentration of the test sample that reduces 100% of biofilm:(2) % biofilm eradication=ODcontrol−ODblank−ODtest−ODblank/ODcontrol−ODblank×100.

S. saprophyticus = experiment: MIC and MBC, broth microdilution; format: cell-based, Staphylococcus saprophyticus; settings: Staphylococcus saprophyticus, geometric mean, S. saprophyticus (n = 3)
Experimental: as §1, §2, §3

[1] = test system: Staphylococcus epidermidis biofilm; experiment: Checkerboard combination assay, biofilm eradication; format: cell-based; settings: S. epidermidis biofilm eradication; natural product alone; mean MBEC; listed as Cur
Experimental: The effect of the combination of ATBs with NPs on the preformed biofilm was evaluated by determining the FICI, as described above for biofilm formation, with slight modifications. After biofilm formation for 24 h, the plate was gently emptied and washed three times with PBS. Then, 50 µL of ATBs and 50 µL of NPs were introduced to the plate. The final concentration ranges from 0.0625 to 128 µg/mL and from 4 to 512 µg/mL for ATBs and NPs, respectively, and is incubated at 37°C for 24 h. After incubation, the medium was gently removed, and the plate was washed three times with PBS. At the end of the incubation time, the MTT reduction assay was performed, and the MBEC was determined. To assess the effect of the combination, the FICI was calculated and interpreted as described above.

[2] = test system: planktonic cells of Staphylococcus aureus; experiment: Checkerboard combination assay, planktonic cells; format: cell-based; settings: Staphylococcus aureus, S. aureus, mean, read-out: MIC alone, NPs
Experimental: (§4) The checkerboard assay, as previously described, was used for the determination of the fractional inhibitory concentration index (FICI). Briefly, 50 µL of MHB was distributed into each well of a 96-well microplate. ATBs were serially diluted along the abscissa, and NPs were serially diluted along the ordinate. Then, 100 µL of bacterial inoculum (1.5 × 10^6 CFU/mL) was added to each well and incubated at 37°C for 24 h. The final concentration ranged from 0.125 to 128 µg/mL for ATBs and 4–512 µg/mL for NPs. After incubation, a volume of 40 µL of INT solution (0.2 mg/mL) was added to each well, and the microplate was incubated at 37°C for 30 min. The wells containing bacterial inoculum and MHB were used as a positive control, while wells containing only MHB + 1% glucose were used as a negative control and used as a blank. Viable bacteria cells change the yellow dye of INT to a pink color. The MICs were considered to be the lowest NP concentrations that prevented the color change medium. Subsequently, the FICI was calculated according to the formula FICI = (MIC of the ATBs in combination/MIC of the ATBs alone) + (MIC of a natural substance in combination/MIC of the natural substance alone). FICI values were interpreted as follows: synergy when FICI ≤ 0.5; additive when 0.5 < FICI ≤ 1; indifference when 1 < FICI ≤ 4; and antagonism when FICI > 4.

[3] = test system: planktonic cells of Staphylococcus saprophyticus; experiment: Checkerboard combination assay, planktonic cells; format: cell-based; settings: S. saprophyticus, mean; for MIC: Staphylococcus saprophyticus, read-out: MIC alone, NPs
Experimental: as §4

[4] = natural products, read-out: MBC

SMILES: COc1cc(/C=C/C(=O)CC(=O)/C=C/c2ccc(O)c(OC)c2)ccc1O [Curcumin, curcumin]
- MIC (S. epidermidis; read-out: MIC): 384 µg/mL (≈ 1040 µM)
- MBC (S. epidermidis; [4]): > 1020 µg/mL
- minimal effective concentration (S. aureus biofilm): 149 µg/mL
- MIC (S. saprophyticus; read-out: MIC): 171 µg/mL (≈ 463 µM)
- MBC (S. saprophyticus; [4]): > 1020 µg/mL
- MBEC Alone NPs [1]: 106.66 µg/mL and 128 µg/mL
- MIC ([2]; 24 h): 235 µg/mL
- MIC [2]: 235 µg/mL
- MIC alone, NPs ([3]; listed as Cur): 213.33 µg/mL
- MIC ([3]; 24 h): 149 µg/mL
- MIC [3]: 149 µg/mL

Source: paper PMC12339163, “Combining Plant Bioactives With Antibiotics for Enhanced Antibiofilm Activity Against Uropathogenic Staphylococcus spp. and Cytotoxicity Evaluation” (Advances in Pharmacological and Pharmaceutical Sciences, 2025)
